From patent US20250136578A1 (Kolm Therapeutics Inc., priority 2023, published 2025)

Key:
AR / CBP ternary complex = AR / CBP ternary complex (Homo sapiens, UniProt P10275+Q92793); experiment: Ternary complex formation assay (sandwich ELISA, AR capture, CBP antibody detection) in VCaP cell lysates; assay type: cell-based; conditions: treated 1.5 hours, rabbit CBP or p300 antibody detection, average, read-out: Average Ternary Complex
How it was run: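 VCaP cells in 5% charcoal-stripped FBS were cultured ≥3 days and then given bifunctional compound for 1.5 h. Lysates went onto AR-antibody-coated plates. Bound CBP (or p300) was detected with a rabbit antibody plus HRP anti-rabbit, using QuantaRed chemifluorescence (ex 570/em 585) read immediately, at 5 min and at 15 min.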

VCaP cells = experiment: VCaP growth inhibition assay (CTG); assay type: cell-based; conditions: Homo sapiens, 216 h, 30 pM R1881, 9 days
How it was run: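 VCaP cells in phenol red-free DMEM with 5% charcoal-stripped serum were stimulated with 30 pM R1881 (final) and treated with compound from 100 nM to 10 fM final (1:5 dilutions) for 9 days at 37 °C. Viability was read by CellTiter-Glo luminescence, and IC50 came from 4-parameter logistic fits.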

Sequence of AR / CBP ternary complex (P10275 whole entry): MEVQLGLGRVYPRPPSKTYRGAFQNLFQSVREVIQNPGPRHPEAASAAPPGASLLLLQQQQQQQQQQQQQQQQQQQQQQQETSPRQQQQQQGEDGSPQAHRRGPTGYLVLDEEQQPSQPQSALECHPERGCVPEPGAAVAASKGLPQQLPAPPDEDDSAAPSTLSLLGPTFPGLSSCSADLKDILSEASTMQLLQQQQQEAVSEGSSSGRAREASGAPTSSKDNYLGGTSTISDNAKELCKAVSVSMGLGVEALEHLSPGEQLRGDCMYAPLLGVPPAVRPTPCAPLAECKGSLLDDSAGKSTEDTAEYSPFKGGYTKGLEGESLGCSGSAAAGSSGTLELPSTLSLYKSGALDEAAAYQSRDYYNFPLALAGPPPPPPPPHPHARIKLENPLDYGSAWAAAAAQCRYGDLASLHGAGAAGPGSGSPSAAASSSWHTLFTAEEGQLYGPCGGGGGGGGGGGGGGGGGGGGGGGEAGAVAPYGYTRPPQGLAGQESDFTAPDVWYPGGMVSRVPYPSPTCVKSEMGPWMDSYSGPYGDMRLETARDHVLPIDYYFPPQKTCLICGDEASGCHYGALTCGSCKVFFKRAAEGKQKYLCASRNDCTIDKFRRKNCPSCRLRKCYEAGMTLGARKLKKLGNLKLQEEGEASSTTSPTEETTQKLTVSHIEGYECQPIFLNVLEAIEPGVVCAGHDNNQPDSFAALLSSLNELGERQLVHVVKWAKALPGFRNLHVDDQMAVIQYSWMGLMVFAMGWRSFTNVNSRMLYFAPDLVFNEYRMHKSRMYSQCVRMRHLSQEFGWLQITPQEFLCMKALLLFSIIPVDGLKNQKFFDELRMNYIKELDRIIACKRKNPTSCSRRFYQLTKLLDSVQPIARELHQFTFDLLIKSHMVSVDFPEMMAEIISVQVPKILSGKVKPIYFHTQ
Sequence of AR / CBP ternary complex (Q92793 2-2442): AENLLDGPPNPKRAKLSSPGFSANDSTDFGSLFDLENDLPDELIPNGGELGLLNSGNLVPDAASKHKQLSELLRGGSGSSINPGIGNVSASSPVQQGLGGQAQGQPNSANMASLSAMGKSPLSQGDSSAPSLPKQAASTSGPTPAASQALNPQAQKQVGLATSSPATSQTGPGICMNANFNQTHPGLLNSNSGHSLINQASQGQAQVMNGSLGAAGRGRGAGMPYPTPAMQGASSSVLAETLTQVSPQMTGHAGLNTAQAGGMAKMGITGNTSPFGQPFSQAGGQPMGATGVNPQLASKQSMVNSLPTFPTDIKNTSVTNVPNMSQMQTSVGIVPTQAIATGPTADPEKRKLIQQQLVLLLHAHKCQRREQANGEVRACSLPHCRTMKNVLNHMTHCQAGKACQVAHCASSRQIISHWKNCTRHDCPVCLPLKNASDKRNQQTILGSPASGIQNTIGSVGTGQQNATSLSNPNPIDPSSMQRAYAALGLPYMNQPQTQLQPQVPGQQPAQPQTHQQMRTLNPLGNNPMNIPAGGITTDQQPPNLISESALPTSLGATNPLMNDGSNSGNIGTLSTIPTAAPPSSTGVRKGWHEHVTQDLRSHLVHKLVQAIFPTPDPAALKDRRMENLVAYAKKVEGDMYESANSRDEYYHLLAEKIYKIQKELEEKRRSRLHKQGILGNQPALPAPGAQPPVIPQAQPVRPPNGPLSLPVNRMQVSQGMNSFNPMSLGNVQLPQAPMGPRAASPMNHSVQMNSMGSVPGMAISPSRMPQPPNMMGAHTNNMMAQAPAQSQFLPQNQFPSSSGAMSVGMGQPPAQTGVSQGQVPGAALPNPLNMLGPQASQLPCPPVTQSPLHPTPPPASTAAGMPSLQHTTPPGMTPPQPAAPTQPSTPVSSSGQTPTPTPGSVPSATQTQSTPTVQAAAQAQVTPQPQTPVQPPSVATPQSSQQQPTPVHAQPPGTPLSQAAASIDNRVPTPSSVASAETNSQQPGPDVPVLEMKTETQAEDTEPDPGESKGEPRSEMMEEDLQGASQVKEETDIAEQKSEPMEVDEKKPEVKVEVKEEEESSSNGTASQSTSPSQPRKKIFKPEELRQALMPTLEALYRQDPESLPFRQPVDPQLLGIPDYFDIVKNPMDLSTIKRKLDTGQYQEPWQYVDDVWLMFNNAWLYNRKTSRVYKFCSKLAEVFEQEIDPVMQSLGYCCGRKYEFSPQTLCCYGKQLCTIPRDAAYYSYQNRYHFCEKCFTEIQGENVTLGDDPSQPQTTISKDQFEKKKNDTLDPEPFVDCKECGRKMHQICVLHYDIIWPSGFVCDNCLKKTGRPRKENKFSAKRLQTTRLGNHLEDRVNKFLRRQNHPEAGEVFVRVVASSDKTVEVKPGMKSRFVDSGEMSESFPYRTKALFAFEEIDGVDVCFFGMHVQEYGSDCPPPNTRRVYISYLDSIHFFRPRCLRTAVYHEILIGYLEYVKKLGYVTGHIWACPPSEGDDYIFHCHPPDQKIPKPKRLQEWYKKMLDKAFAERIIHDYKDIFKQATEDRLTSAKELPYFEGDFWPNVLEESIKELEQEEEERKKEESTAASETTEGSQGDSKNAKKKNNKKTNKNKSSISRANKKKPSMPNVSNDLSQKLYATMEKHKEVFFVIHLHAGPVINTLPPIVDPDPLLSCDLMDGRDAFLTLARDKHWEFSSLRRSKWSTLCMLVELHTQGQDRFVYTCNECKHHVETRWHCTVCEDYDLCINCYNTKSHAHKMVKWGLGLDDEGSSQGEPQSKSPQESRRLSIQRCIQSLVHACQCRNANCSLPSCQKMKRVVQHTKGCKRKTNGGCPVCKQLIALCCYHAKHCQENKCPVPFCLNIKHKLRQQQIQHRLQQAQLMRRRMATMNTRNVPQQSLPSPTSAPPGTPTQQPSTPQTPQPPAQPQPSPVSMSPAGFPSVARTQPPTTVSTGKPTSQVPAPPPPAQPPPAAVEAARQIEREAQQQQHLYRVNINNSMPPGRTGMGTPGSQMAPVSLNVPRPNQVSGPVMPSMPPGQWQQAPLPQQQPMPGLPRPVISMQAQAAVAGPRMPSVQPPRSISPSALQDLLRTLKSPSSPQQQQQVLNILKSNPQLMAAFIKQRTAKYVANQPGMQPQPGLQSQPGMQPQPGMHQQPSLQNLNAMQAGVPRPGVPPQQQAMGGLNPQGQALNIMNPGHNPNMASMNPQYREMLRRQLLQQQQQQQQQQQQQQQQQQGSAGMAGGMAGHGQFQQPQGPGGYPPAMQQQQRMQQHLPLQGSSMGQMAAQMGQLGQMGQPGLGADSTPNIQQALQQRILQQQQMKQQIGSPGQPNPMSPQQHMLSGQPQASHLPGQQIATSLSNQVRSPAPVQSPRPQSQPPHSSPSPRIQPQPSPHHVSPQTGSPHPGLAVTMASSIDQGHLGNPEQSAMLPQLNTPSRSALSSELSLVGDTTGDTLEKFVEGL

SMILES	EC50 (AR / CBP ternary complex)	IC50 (VCaP cells)
CC(=O)N1CCc2c(c(-c3cccc4cc(-c5ccc(CCC6CCN(c7ccc(C(=O)N[C@H]8CC[C@H](Oc9ccc(C#N)c(Cl)c9)CC8)nn7)CC6)cc5)ncc34)nn2C2CCOCC2)C1 [Compound 153, 6-[4-[2-[4-[8-(5-acetyl-1-tetrahydropyran-4-yl-6,7-dihydro-4H-pyrazolo[4,3-c]pyridin-3-yl)-3-isoquinolyl]phenyl]ethyl]-1-piperidyl]-N-[4-(3-chloro-4-cyano-phenoxy)cyclohexyl]pyridazine-3-carboxamide]	< 1 nM	≤ 0.1 nM
CC(=O)N1CCc2c(c(N3CCCc4cc(-c5ccc(CCC6CCN(c7ccc(C(=O)N[C@H]8CC[C@H](Oc9ccc(C#N)c(Cl)c9)CC8)nn7)CC6)cc5)c(C(F)F)cc43)nn2C2CCOCC2)C1 [Compound 154, 6-[4-[2-[4-[1-(5-acetyl-1-tetrahydropyran-4-yl-6,7-dihydro-4H-pyrazolo[4,3-c]pyridin-3-yl)-7-(difluoromethyl)-3,4-dihydro-2H-quinolin-6-yl]phenyl]ethyl]-1-piperidyl]-N-[4-(3-chloro-4-cyano-phenoxy)cyclohexyl]pyridazine-3-carboxamide]	< 1 nM	0.1 to 1 nM
CC(=O)N1CCc2c(c(N3CCCc4cc(-c5cnn(C)c5)c(C(F)F)cc43)nn2C2CCC(CC3CCN(c4ccc(C(=O)N[C@H]5CC[C@H](Oc6ccc(C#N)c(Cl)c6)CC5)nn4)CC3)CC2)C1 (some centres unmarked) [Compound 155, 6-[4-[[4-[5-acetyl-3-[7-(difluoromethyl)-6-(1-methylpyrazol-4-yl)-3,4-dihydro-2H-quinolin-1-yl]-6,7-dihydro-4H-pyrazolo[4,3-c]pyridin-1-yl]cyclohexyl]methyl]-1-piperidyl]-N-[4-(3-chloro-4-cyano-phenoxy)cyclohexyl]pyridazine-3-carboxamide]	< 1 nM	0.1 to 1 nM
CC(=O)N1CCc2c(c(N3CCCc4cc(-c5ccc(CCC6CCN(c7ccc(C(=O)N[C@H]8CC[C@H](Oc9ccc(C#N)c(Cl)c9)CC8)nn7)CC6)cc5)ncc43)nn2C2CCOCC2)C1 [Compound 156, 6-[4-[2-[4-[1-(5-acetyl-1-tetrahydropyran-4-yl-6,7-dihydro-4H-pyrazolo[4,3-c]pyridin-3-yl)-3,4-dihydro-2H-1,7-naphthyridin-6-yl]phenyl]ethyl]-1-piperidyl]-N-[4-(3-chloro-4-cyano-phenoxy)cyclohexyl]pyridazine-3-carboxamide]	1 to 10 nM	1 to 100 nM
CC(=O)N1CCc2c(c(N3CCCc4cc(-c5ccc(CCN6CCN(c7ccc(C(=O)N[C@H]8CC[C@H](Oc9ccc(C#N)c(Cl)c9)CC8)nn7)CC6)cc5)ncc43)nn2C2CCOCC2)C1 [Compound 157, 6-[4-[2-[4-[1-(5-acetyl-1-tetrahydropyran-4-yl-6,7-dihydro-4H-pyrazolo[4,3-c]pyridin-3-yl)-3,4-dihydro-2H-1,7-naphthyridin-6-yl]phenyl]ethyl]piperazin-1-yl]-N-[4-(3-chloro-4-cyano-phenoxy)cyclohexyl]pyridazine-3-carboxamide]	< 1 nM	0.1 to 1 nM
CC(=O)N1CCc2c(c(N3CCCc4cc(-c5cnn(C)c5)c(C(F)F)cc43)nn2C2CCN(C(=O)C3CCN(c4ccc(C(=O)N[C@H]5CC[C@H](Oc6ccc(C#N)c(Cl)c6)CC5)cn4)CC3)CC2)C1 [Compound 158, 6-[4-[4-[5-acetyl-3-[7-(difluoromethyl)-6-(1-methylpyrazol-4-yl)-3,4-dihydro-2H-quinolin-1-yl]-6,7-dihydro-4H-pyrazolo[4,3-c]pyridin-1-yl]piperidine-1-carbonyl]-1-piperidyl]-N-[4-(3-chloro-4-cyano-phenoxy)cyclohexyl]pyridine-3-carboxamide]	1 to 10 nM	0.1 to 1 nM
CC(=O)N1CCc2c(c(N3CCCc4cc(-c5cnn(C)c5)c(C(F)F)cc43)nn2C2CCN(C(=O)C3CCN(c4ccc(C(=O)N[C@H]5CC[C@H](Oc6ccc(C#N)c(Cl)c6)CC5)cc4)CC3)CC2)C1 [Compound 159, 4-[4-[4-[5-acetyl-3-[7-(difluoromethyl)-6-(1-methylpyrazol-4-yl)-3,4-dihydro-2H-quinolin-1-yl]-6,7-dihydro-4H-pyrazolo[4,3-c]pyridin-1-yl]piperidine-1-carbonyl]-1-piperidyl]-N-[4-(3-chloro-4-cyano-phenoxy)cyclohexyl]benzamide]	< 1 nM	≤ 0.1 nM
COc1cc(O[C@H]2CC[C@H](NC(=O)c3ccc(N4CCC(C(=O)N5CCC(n6nc(N7CCCc8cc(-c9cnn(C)c9)c(C(F)F)cc87)c7c6CCN(C(C)=O)C7)CC5)CC4)cc3)CC2)ccc1C#N [Compound 160, 4-[4-[4-[5-acetyl-3-[7-(difluoromethyl)-6-(1-methylpyrazol-4-yl)-3,4-dihydro-2H-quinolin-1-yl]-6,7-dihydro-4H-pyrazolo[4,3-c]pyridin-1-yl]piperidine-1-carbonyl]-1-piperidyl]-N-[4-(4-cyano-3-methoxy-phenoxy)cyclohexyl]benzamide]	< 1 nM	≤ 0.1 nM
CC(=O)N1CCc2c(c(-c3cccc4cc(-c5cnn(C)c5)ncc34)nn2C2CCN(CC3CCN(c4ccc(C(=O)N[C@H]5CC[C@H](Oc6ccc(C#N)c(Cl)c6)CC5)cn4)CC3)CC2)C1 [Compound 161, 6-[4-[[4-[5-acetyl-3-[3-(1-methylpyrazol-4-yl)-8-isoquinolyl]-6,7-dihydro-4H-pyrazolo[4,3-c]pyridin-1-yl]-1-piperidyl]methyl]-1-piperidyl]-N-[4-(3-chloro-4-cyano-phenoxy)cyclohexyl]pyridine-3-carboxamide]	< 1 nM	≤ 0.1 nM
CC(=O)N1CCc2c(c(-c3cccc4cc(-c5cnn(C)c5)ncc34)nn2C2CCN(CC3CCN(c4ccc(C(=O)N[C@H]5CC[C@H](Oc6ccc(C#N)c(Cl)c6)CC5)cc4)CC3)CC2)C1 [Compound 162, 4-[4-[[4-[5-acetyl-3-[3-(1-methylpyrazol-4-yl)-8-isoquinolyl]-6,7-dihydro-4H-pyrazolo[4,3-c]pyridin-1-yl]-1-piperidyl]methyl]-1-piperidyl]-N-[4-(3-chloro-4-cyano-phenoxy)cyclohexyl]benzamide]	1 to 10 nM	0.1 to 1 nM
COc1cc(O[C@H]2CC[C@H](NC(=O)c3ccc(N4CCC(CN5CCC(n6nc(-c7cccc8cc(-c9cnn(C)c9)ncc78)c7c6CCN(C(C)=O)C7)CC5)CC4)cc3)CC2)ccc1C#N [Compound 163, 4-[4-[[4-[5-acetyl-3-[3-(1-methylpyrazol-4-yl)-8-isoquinolyl]-6,7-dihydro-4H-pyrazolo[4,3-c]pyridin-1-yl]-1-piperidyl]methyl]-1-piperidyl]-N-[4-(4-cyano-3-methoxy-phenoxy)cyclohexyl]benzamide]	< 1 nM	≤ 0.1 nM
CC(=O)N1CCc2c(c(-c3cccc4cc(-c5cnn(C)c5)ncc34)nn2C2CCN(C(=O)C3CCN(c4ccc(C(=O)N[C@H]5CC[C@H](Oc6ccc(C#N)c(Cl)c6)CC5)cc4)CC3)CC2)C1 [Compound 164, 4-[4-[4-[5-acetyl-3-[3-(1-methylpyrazol-4-yl)-8-isoquinolyl]-6,7-dihydro-4H-pyrazolo[4,3-c]pyridin-1-yl]piperidine-1-carbonyl]-1-piperidyl]-N-[4-(3-chloro-4-cyano-phenoxy)cyclohexyl]benzamide]	< 1 nM	0.1 to 1 nM
CC(=O)N1CCc2c(c(-c3cccc4cc(-c5ccc(CCC6CCN(c7ccc(C(=O)N[C@H]8CC[C@H](Oc9ccc(C#N)c(Cl)c9)CC8)cn7)CC6)nc5)ncc34)nn2C2CCOCC2)C1 [Compound 165]	< 1 nM	0.1 to 1 nM
